The text below walks through data of article PMC5428354, “Screening of a natural compound library identifies emodin, a natural compound from Rheum palmatum Linn that inhibits DPP4” (PeerJ, 2017).

The experiment has as its target DPP4 (Homo sapiens, UniProt P27487). As to the kind of experiment: DPP4 activity assay (DPP4 inhibitor screening assay kit, Cayman).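 As to all read-outs here: fluorescence read at excitation 360 nm and emission 460 nm after the enzyme reaction ran 30 min at 37 °C in a 96-well plate.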 Details: purchased Cayman Chemical, Ann Arbor, MI, USA. The note with it: for remaining activity at 10 µM: 0.5 h. It counts as biochemical.
[1] abbreviates: 10 µM, control mean 100.0, Figure 1A raw data.
[2] abbreviates: 10 µM, control mean 100.0, mean of Exp 1-3.
[3] abbreviates: 10 µM, control mean 100.0, Figure 1A raw data, read-out: DPP4 activity in library screen, Exp 1.
Setting [4] is: 10 µM, control mean 100.0, Figure 1A raw data, read-out: DPP4 activity in library screen, Exp 2.
Setting [5] is: 10 µM, control mean 100.0, Figure 1A raw data, read-out: DPP4 activity in library screen, Exp 3.
Setting [6] is: 10 µM, control mean 100.0, mean of Exp 1-3, read-out: DPP4 activity in library screen, Mean.

Read-outs that look alike come from different tables or passages of the source.

Chain of DPP4 (P27487 whole entry): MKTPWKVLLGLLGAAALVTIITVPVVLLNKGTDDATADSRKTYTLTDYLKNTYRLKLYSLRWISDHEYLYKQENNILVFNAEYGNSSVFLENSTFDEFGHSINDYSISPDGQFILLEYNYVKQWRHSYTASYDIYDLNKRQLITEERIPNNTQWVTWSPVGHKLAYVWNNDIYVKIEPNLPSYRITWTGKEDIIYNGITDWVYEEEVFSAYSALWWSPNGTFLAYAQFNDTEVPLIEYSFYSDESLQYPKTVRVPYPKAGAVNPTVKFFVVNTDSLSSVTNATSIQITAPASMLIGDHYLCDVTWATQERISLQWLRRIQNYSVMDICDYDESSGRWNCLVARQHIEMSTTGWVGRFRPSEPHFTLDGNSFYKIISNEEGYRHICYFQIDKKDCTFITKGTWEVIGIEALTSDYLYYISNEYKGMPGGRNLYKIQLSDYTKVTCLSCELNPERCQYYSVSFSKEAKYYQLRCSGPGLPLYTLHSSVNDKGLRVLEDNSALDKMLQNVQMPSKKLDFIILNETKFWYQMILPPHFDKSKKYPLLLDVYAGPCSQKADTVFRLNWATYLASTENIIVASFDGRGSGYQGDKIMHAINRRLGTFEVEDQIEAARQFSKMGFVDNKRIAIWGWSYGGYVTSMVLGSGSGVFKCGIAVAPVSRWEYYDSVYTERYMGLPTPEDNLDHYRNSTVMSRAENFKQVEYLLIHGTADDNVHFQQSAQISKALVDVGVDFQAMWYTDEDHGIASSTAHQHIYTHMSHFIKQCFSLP

For the compound Myricitrin, under setting [1], the “DPP4 activity in library screen, Exp 1” value amounted to 67; the “DPP4 activity in library screen, Exp 2” value is 70.2; the “DPP4 activity in library screen, Exp 3” value stood at 70.2. Moreover, under setting [2], the “DPP4 activity in library screen, Mean” value is reported as 69.1.
Regarding `Nc1nc2c(ncn2[C@@H]2O[C@H](CO)[C@@H](O)[C@H]2O)c(=O)[nH]1` [Guanosine], the remaining activity at 10 µM turned out to be 104% under setting [3], 102% under setting [4], 90.2% under setting [5] and 98.5% under setting [6].
Consider `COc1cc(C=O)ccc1O` [Vanillin], for which the remaining activity at 10 µM is 105% under setting [3], 95.3% under setting [4], 51.5% under setting [5] and 83.8% under setting [6].
In the case of `COc1cc(/C=C/C(=O)O)ccc1O` [Ferulic Acid], under setting [1], the “DPP4 activity in library screen, Exp 1” value is 97.5; the “DPP4 activity in library screen, Exp 2” value is on record as 83.7; the “DPP4 activity in library screen, Exp 3” value is 98. Under setting [2], the “DPP4 activity in library screen, Mean” value turned out to be 93.1.
In the case of `O=c1c(O)c(-c2ccc(O)c(O)c2)oc2cc(O)cc(O)c12` [Quercetin], the remaining activity at 10 µM under setting [3] is 62.7%, the remaining activity at 10 µM under setting [4] turned out to be 62.1%, the remaining activity at 10 µM under setting [5] came to 72.1% and the remaining activity at 10 µM under setting [6] is 65.6%.
In the case of `COc1cc2c(cc1O)C[C@@H]1NCCc3cc(OC)c(O)c-2c31` [Norisoboldine], under setting [1], the “DPP4 activity in library screen, Exp 1” value is listed as 95.3; the “DPP4 activity in library screen, Exp 2” value is recorded as 99.3; the “DPP4 activity in library screen, Exp 3” value amounted to 71. Moreover, under setting [2], the “DPP4 activity in library screen, Mean” value was 88.5.
The matching figures for `COc1ccc([C@@H]2CC(=O)c3c(O)cc(O[C@@H]4O[C@H](CO[C@@H]5O[C@@H](C)[C@H](O)[C@@H](O)[C@H]5O)[C@@H](O)[C@H](O)[C@H]4O)cc3O2)cc1O` [Hesperidin]: 97.2, 95.1, 85.1 and 92.5.
As to `COc1ccc(-c2cc(=O)c3c(OC)c(OC)c(OC)c(OC)c3o2)cc1OC` [Nobiletin], the remaining activity at 10 µM by setting is: under setting [3], 81.7%; under setting [4], 69.9%; under setting [5], 67.6%; under setting [6], 73.1%.
With `O=C(CCc1ccc(O)cc1)c1c(O)cc(O)cc1O[C@@H]1O[C@H](CO)[C@@H](O)[C@H](O)[C@H]1O` [Phlorizin], the remaining activity at 10 µM was determined as 63.2% under setting [3], 86.5% under setting [4], 114% under setting [5] and 87.8% under setting [6].
On the same counts, the results for `COc1c(O)cc2c(c1O)[C@@H]1O[C@H](CO)[C@@H](O)[C@H](O)[C@H]1OC2=O` [Bergenin] are 114%, 102%, 73.5% and 96.3%.
The matching figures for `O=C1CCC[C@@H]2[C@H]3CCC[N+]4([O-])CCC[C@@H](CN12)[C@@H]34` (stereo partly shown) [Oxymatrine]: 106%, 103%, 83.7% and 97.6%.
As for `C[C@@H]1O[C@@H](O[C@H]2[C@H](Oc3cc(O)c(C(=O)CCc4ccc(O)cc4)c(O)c3)O[C@H](CO)[C@@H](O)[C@@H]2O)[C@H](O)[C@H](O)[C@H]1O` [Naringin Dihydrochalcone], under setting [1], the “DPP4 activity in library screen, Exp 1” value is listed as 84.3; the “DPP4 activity in library screen, Exp 2” value is 82.4; the “DPP4 activity in library screen, Exp 3” value is given as 91.6. Also, the “DPP4 activity in library screen, Mean” value under setting [2] was determined as 86.1.
As to `CC1(C)[C@@H](O[C@H]2O[C@H](C(=O)O)[C@@H](O)[C@H](O)[C@H]2O[C@@H]2O[C@H](C(=O)O)[C@@H](O)[C@H](O)[C@H]2O)CC[C@]2(C)[C@H]3C(=O)C=C4[C@@H]5C[C@@](C)(C(=O)O)CC[C@]5(C)CC[C@@]4(C)[C@]3(C)CC[C@@H]12` [Glycyrrhizin (Glycyrrhizic Acid), Glycyrrhizin], the remaining activity at 10 µM came to 137% under setting [3], 78.9% under setting [4], 65.2% under setting [5] and 93.8% under setting [6].
With `O=c1c(O)c(-c2ccc(O)c(O)c2)oc2cc(O)cc(O)c12` [Quercetin Dihydrate], under setting [1], the “DPP4 activity in library screen, Exp 1” value turned out to be 59.9; the “DPP4 activity in library screen, Exp 2” value worked out at 57; the “DPP4 activity in library screen, Exp 3” value is 57.1. Moreover, the “DPP4 activity in library screen, Mean” value under setting [2] turned out to be 58.0.
As for `O=C(O)Cc1c[nH]c2ccccc12` [Indole-3-acetic acid], the remaining activity at 10 µM by setting is: under setting [3], 115%; under setting [4], 108%; under setting [5], 121%; under setting [6], 115%.
With `O=c1c(O)c(-c2cc(O)c(O)c(O)c2)oc2cc(O)cc(O)c12` [Myricetin], under setting [1], the “DPP4 activity in library screen, Exp 2” value amounted to 57.5. For the same compound, the “DPP4 activity in library screen, Mean” value under setting [2] is on record as 57.9.
For `C[C@H]1[C@H](C)CC[C@]2(C(=O)O)CC[C@]3(C)C(=CC[C@@H]4[C@@]5(C)CC[C@H](O)C(C)(C)[C@@H]5CC[C@]43C)[C@H]12` [Ursolic Acid], the remaining activity at 10 µM was found to be 85.1% under setting [3], 78.9% under setting [4], 89.1% under setting [5] and 84.4% under setting [6].
For the compound `O=c1cc(-c2ccc(O)c(O)c2)oc2cc(O)cc(O)c12` [Luteolin], the remaining activity at 10 µM is, setting by setting: under setting [3], 61.4%; under setting [4], 68.3%; under setting [5], 70%; under setting [6], 66.6%.
As for `O=C1c2c(O)cc(O)cc2O[C@H](c2cc(O)c(O)c(O)c2)[C@H]1O` [Dihydromyricetin], the remaining activity at 10 µM was 101% under setting [3], 88.8% under setting [4], 72.1% under setting [5] and 87.3% under setting [6].
With `CC(=O)c1c(O)c(C)c(O)c2c1OC1=CC(=O)C(C(C)=O)C(=O)C12C` (single isomer, unassigned; (+)) [(+)-Usniacin], under setting [1], the “DPP4 activity in library screen, Exp 1” value was found to be 88.7; the “DPP4 activity in library screen, Exp 2” value came to 90.4; the “DPP4 activity in library screen, Exp 3” value is listed as 89.7. For the same compound, the “DPP4 activity in library screen, Mean” value under setting [2] is on record as 89.6.
On to `COC1=C[C@@H]2[C@@H]3Cc4ccc(OC)c(O)c4[C@]2(CCN3C)CC1=O` [Sinomenine], for which the remaining activity at 10 µM (read-out: DPP4 activity in library screen, Exp 1) came out at 103%; the remaining activity at 10 µM (read-out: DPP4 activity in library screen, Exp 2) turned out to be 93.4%; the remaining activity at 10 µM (read-out: DPP4 activity in library screen, Mean) stood at 104%.
As to `O=c1ccc2cc(O[C@@H]3O[C@H](CO)[C@@H](O)[C@H](O)[C@H]3O)c(O)cc2o1` [Esculin], the “DPP4 activity in library screen, Mean” value under setting [2] is “auto-fluorescence”.
As to `Cc1coc2c1C(=O)C(=O)c1c-2ccc2c1CCCC2(C)C` [Tanshinone IIA], the remaining activity at 10 µM is, setting by setting: under setting [3], 50.8%; under setting [4], 56.6%; under setting [5], 69.7%; under setting [6], 59%.
Consider `COc1ccc2cc1Oc1ccc(cc1)C[C@H]1c3cc(c(OC)cc3CCN1C)Oc1c(OC)c(OC)cc3c1[C@H](C2)N(C)CC3` [Tetrandrine], for which the remaining activity at 10 µM runs as follows: under setting [3], 99.9%; under setting [4], 98%; under setting [5], 99.8%; under setting [6], 99.2%.
Consider `C=C[C@H]1CN2CC[C@H]1C[C@H]2[C@H](O)c1ccnc2ccccc12` [Cinchonidine], for which the remaining activity at 10 µM was determined as 90.5% under setting [3], 97.4% under setting [4], 97.3% under setting [5] and 95.1% under setting [6].
On to `COc1ccc(C(C)=O)c(O)c1` [Paeonol], for which the remaining activity at 10 µM came to 80.3% under setting [3], 92.8% under setting [4], 99.9% under setting [5] and 91% under setting [6].
Turning to `C[C@@H]1O[C@@H](O[C@H]2[C@H](Oc3cc(O)c4c(c3)O[C@H](c3ccc(O)cc3)CC4=O)O[C@H](CO)[C@@H](O)[C@@H]2O)[C@H](O)[C@H](O)[C@H]1O` [Naringin], the remaining activity at 10 µM was determined as 116% under setting [3], 82.6% under setting [4], 68.6% under setting [5] and 89.2% under setting [6].
As for `O=c1[nH]cnc2nc[nH]c12` [Hypoxanthine], the remaining activity at 10 µM stood at 96.7% under setting [3], 99.3% under setting [4], 98.5% under setting [5] and 98.2% under setting [6].
As for `Br.CCN1C[C@]2(OC(=O)c3ccccc3NC(C)=O)CC[C@H](OC)[C@]34C1[C@H](C[C@H]23)[C@@]1(O)C[C@H](OC)[C@H]2C[C@@H]4[C@]1(O)[C@H]2OC` [Lappaconite HBr], under setting [1], the “DPP4 activity in library screen, Exp 1” value was determined as 95.4; the “DPP4 activity in library screen, Exp 2” value amounted to 80.2; the “DPP4 activity in library screen, Exp 3” value is recorded as 92.6. For the same compound, the “DPP4 activity in library screen, Mean” value under setting [2] is 89.4.
As for `COc1ccc(-c2cc(=O)c3c(O)cc(O)cc3o2)cc1O` [Diosmetin], the remaining activity at 10 µM under setting [3] was determined as 77.2%, the remaining activity at 10 µM under setting [4] is 77.5%, the remaining activity at 10 µM under setting [5] amounted to 77.6% and the remaining activity at 10 µM under setting [6] is 77.4%.
Turning to `c1cc2c(cc1[C@H]1OC[C@H]3[C@@H]1CO[C@@H]3c1ccc3c(c1)OCO3)OCO2` [Sesamin], the remaining activity at 10 µM reads like this: under setting [3], 93.7%; under setting [4], 90%; under setting [5], 85.5%; under setting [6], 89.7%.
